From PMC7649969, “Pyrazolyl-pyrimidones inhibit the function of human solute carrier protein SLC11A2 (hDMT1) by metal chelation” (RSC Medicinal Chemistry, 2020)
pIC50: −log10 of the molar value. Entries after “also recorded” stand apart in the source; their conditions may differ.

What was measured:
hDMT1 = target: T1, hDMT1 (Homo sapiens, UniProt P49281); assay: 55Fe2+ uptake by HEK293T cells transiently transfected with hDMT1; type: cell-based; set-up: DsRED; expressed in transfected cells; host or cells: HEK293T (ATCC CRL-3216), transient transfection with Lipofectamine 2000; conditions: for inhibition of 55Fe2+ uptake by hDMT1: compound 10 μM, 55Fe2+ 1 μM, pH 5.5, HEK293T; for pIC50: HEK293T transiently transfected with hDMT1, 55Fe2+ 1 μM, pH 5.5
T1 sequence (P49281 1-568): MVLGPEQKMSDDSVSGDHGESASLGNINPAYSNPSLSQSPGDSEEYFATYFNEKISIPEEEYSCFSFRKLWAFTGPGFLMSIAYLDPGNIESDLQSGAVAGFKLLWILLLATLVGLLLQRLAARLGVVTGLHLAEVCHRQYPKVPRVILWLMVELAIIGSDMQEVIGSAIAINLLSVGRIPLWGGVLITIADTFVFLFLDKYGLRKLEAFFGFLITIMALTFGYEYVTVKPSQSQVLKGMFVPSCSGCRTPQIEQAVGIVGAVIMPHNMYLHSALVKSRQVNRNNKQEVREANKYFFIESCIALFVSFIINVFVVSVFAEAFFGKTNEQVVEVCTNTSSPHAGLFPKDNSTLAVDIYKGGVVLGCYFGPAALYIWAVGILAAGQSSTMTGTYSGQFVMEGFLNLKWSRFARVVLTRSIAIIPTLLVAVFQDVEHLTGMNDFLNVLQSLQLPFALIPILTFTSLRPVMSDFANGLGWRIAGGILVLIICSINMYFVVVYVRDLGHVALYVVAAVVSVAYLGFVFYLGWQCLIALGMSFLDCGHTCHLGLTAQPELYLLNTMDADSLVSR
Text: (§1) Complex formation with Fe^2+ should result in non-selective inhibition of different metal transporters. To test this hypothesis, we investigated whether human SLC39A8 (hZIP8), a transporter of Zn^2+ and Fe^2+ unrelated to SLC11 family, might also be inhibited by our hDMT1 inhibitors. Both SLCs can be tested by inhibition of radioactive iron uptake into HEK293 cells expressing the transporter, at pH 5.5 for hDMT1 and at pH 7.4 for hZIP8.
(§2) Fig. 5 Cross reactivity of hDMT1 inhibitors over the functional activity of the divalent metal transporter hZIP8. (a) ^55Fe^2+ uptake (1 μM) by HEK293T cells (source: American Type Culture Collection, catalog no. CRL-3216) transiently transfected with the empty vector (Ev), hDMT1 or hZIP8. Uptake assay was performed at the optimal pH for the functional activity of each transporter (pH 5.5 and pH 7.4 respectively). The indicated compounds (10 μM) were pre-incubated for 5 min, and then, for 15 min with both compound and ^55Fe^2+. Measured ^55Fe^2+ was corrected by subtracting the background iron uptake measured in non-transfected cells. The data was normalized to the Fe^2+ uptake measured in the presence of DMSO (0.1%) and represented as mean ± SD (N = 5–16; obtained from 2 independent experiments). IC50 determination for pyrazolyl-pyrimidone 13 (b) and bipyridine (c) in HEK293T cells transiently transfected with hDMT1 (left panels) or hZIP8 (right panels). ^55Fe^2+ uptake (1 μM) was measured in the presence of the indicated compound concentration ranges, and the measurements were corrected by subtracting the background iron uptake measured in non-transfected cells. IC50 values were calculated by fitting the data to a sigmoidal 4-parameter equation. Representative experiments are depicted, while IC50 values were calculated as mean ± SD of 3 different experiments.
(§3) Chemicals and reagents were purchased from Merck, except where indicated otherwise.
(§4) Cell Culture. Cellular experiments where conducted either with a HEK293 cell line (ATCC) stably expressing DsRED-hDMT1 plasmid or HEK293T cells (ATCC) transiently transfected with DsRED-hZIP8 or DsRED-hDMT1 plasmids. The cell line stably expressing hDMT1 was generated as described in previous works1,2. In both cases, cells were cultured in Dulbecco´s modified Eagle´s medium (DMEM) supplemented with 10 % foetal bovine serum (FBS), 10 mM HEPES and 1 mM Na-pyruvate under standard cell culture conditions (37 °C, 95 % humidity and air containing 5 % CO2). When culturing the hDMT1 overexpressing cell line, to maintain stable the expression of the exogenous plasmid, culture media was also supplemented with […] geneticin (Life Technologies). […]
(§5) Radiolabelled iron uptake assay. Cells were seeded in clear bottom, white-well, poly-D-lysine coated 96-well plates (Corning). HEK293 cells stably over-expressing hDMT1 were seeded 24 hours before the experiment at a density of 50,000 cells/well. HEK293T cells were seeded at 30,000 cells/well 48 hours before the experiment, and 24 hours after were transfected […]
(§6) using Lipofectamine 2000 (Life technologies) as described in the manufacturer’s protocol.
(§7) Before the uptake assay, culture media was aspirated and the cells were washed with the uptake solution (140 mM NaCl, 2.5 mM KCl, 1 mM CaCl2, 1 mM MgCl2, 1.2 mM K2HPO4, 10 mM glucose, 5 mM HEPES, 5 mM MES, pH 7.4). To determine the iron uptake, the cells were incubated for 15 min at room temperature (RT) with uptake solution (pH 5.5) supplemented with 100 µM Ascorbic acid, and the indicated amount of non-radioactive Ferrous iron (Fe2+) and radiolabelled 55Fe2+ (American Radiolabelled) (0.5 µCi/mL). To stop the uptake process, the solution containing the radiotracer was removed and cells were washed with ice-cold uptake solution (pH 7.5). To determine the iron accumulated within the cells during the incubation time, the scintillation cocktail Mycrosinth 20 (PerkinElmer) was added to each well, and the cells were incubated during 1 hour at RT under constant agitation. […]

SLC39A8 (hZIP8) = target: T2, SLC39A8 (hZIP8) (Homo sapiens, UniProt Q9C0K1); assay: 55Fe2+ uptake by HEK293T cells transiently transfected with hZIP8; type: cell-based; conditions: for inhibition of 55Fe2+ uptake by hZIP8: compound 10 μM, 55Fe2+ 1 μM, pH 7.4, HEK293T; for pIC50: HEK293T transiently transfected with hZIP8, 55Fe2+ 1 μM, pH 7.4
T2 construct: DsRED; expressed in transfected cells; host or cells: HEK293T (ATCC CRL-3216), transient transfection with Lipofectamine 2000
T2 sequence (Q9C0K1 23-460): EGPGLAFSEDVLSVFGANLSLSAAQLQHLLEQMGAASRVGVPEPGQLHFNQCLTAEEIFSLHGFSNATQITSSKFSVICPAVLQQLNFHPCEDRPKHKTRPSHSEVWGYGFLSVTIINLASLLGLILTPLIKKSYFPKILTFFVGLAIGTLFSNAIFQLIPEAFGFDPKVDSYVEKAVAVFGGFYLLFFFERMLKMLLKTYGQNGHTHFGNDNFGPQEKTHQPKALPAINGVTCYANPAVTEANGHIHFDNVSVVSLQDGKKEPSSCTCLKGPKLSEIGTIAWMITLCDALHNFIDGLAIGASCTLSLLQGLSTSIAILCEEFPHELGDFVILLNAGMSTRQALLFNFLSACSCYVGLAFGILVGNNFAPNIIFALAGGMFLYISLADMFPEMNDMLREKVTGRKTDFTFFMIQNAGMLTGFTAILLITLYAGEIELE
Text: as §1, §2, §3, §4, §5, §6, §7

Compound | inhibition of 55Fe2+ uptake by hDMT1 (hDMT1) | inhibition of 55Fe2+ uptake by hZIP8 (SLC39A8 (hZIP8)) | pIC50 (hDMT1) | pIC50 (SLC39A8 (hZIP8))
Cc1cc(=O)[nH]c(-n2nc3c(c2C)CCCC3)n1 [Compound 13] | inhibited both transporters | inhibited both transporters; also recorded: cross-inhibition | ~5.96 | ~5.96
c1ccc(-c2ccccn2)nc1 [bipyridine] | inhibited both transporters | inhibited both transporters | ~5.19 | ~5.19

The next lines start with results.

inhibition of 55Fe2+ uptake by hDMT1 (hDMT1) | inhibition of 55Fe2+ uptake by hZIP8 (SLC39A8 (hZIP8)) | Compound | pIC50 (hDMT1) | pIC50 (SLC39A8 (hZIP8))
only inhibited hDMT1 | no measurable activity on hZIP8 | N=C(N)SCc1cccc2c1oc1c(CSC(=N)N)cccc12 [Compound 1, reference compound] | – | –
inhibited both transporters | inhibited both transporters | Cc1nn(-c2ccccn2)c(O)c1C(=O)Nc1cccc(C(F)(F)F)c1 [Compound 3, reference compound] | – | –
inhibited both transporters | inhibited both transporters | Cc1cc(O)nc(-n2nc(C)cc2C)n1 [Compound 5] | – | –
